PMC9222498 (Bioactive Materials, 2022)

How the values were obtained:
[1] = tested on: 4T1 spontaneous metastasis model; assay: In vivo antimetastatic activity, 4T1 spontaneous metastasis model; parameters: species or system mice; settings: Day 24
Carboxylesterase = settings: after intravenous administration; ref [51]; cited from earlier work
[2] = tested on: orthotopic 4T1 breast cancer model; assay: In vivo antitumor activity, orthotopic 4T1 breast cancer model; parameters: species or system BALB/c mice; settings: 10 mg/kg SN38 equiv., i.v., days 0, 3, 6

In the case of `CCc1c2c(nc3ccc(OC(=O)N4CCC(N5CCCCC5)CC4)cc13)-c1cc3c(c(=O)n1C2)COC(=O)[C@]3(O)CC` [CPT-11, irinotecan], the “metastasizing tumor cells in liver and lung (H&E)” value [1] is given as “clearly detected metastasizing tumor cells in liver and lung”, the “metastatic burden in lymph nodes (H&E)” value ([1]; ipsilateral inguinal lymph node) is given as “did not significantly reduce the metastatic burden” and the “enzymatic conversion rate to SN38” value (Carboxylesterase) is given as under 8%. For the same compound, the primary tumor growth [2] was “similarly rapid tumor growth compared with the saline-treated group”.
